Source: patent publication US9682978B2, “2,6,7 substituted purines as HDM2 inhibitors” (Merck Sharp & Dohme Corp., priority 2013, dated 2017)

biological target: T1, HDM2 (Homo sapiens, UniProt Q00987); assay: HDM2 FRET assay (inhibition of p53 peptide binding to HDM2); conditions: Table 1, printed in the FRET IC50 column; at 1000 nM compound
T1 construct: Thioredoxin (N); made in house; host or cells: E. coli BL21(DE3)Rosetta (pET32a)
Excerpt: Methods: An HDM2 FRET assay was developed to assess the compounds' inhibitory activity towards binding of p53 protein. A truncated version of HDM2 with residues 17 to 125 (containing p53 binding surface, Science (1994) 265, 346-355), with N-terminal His and Thioredoxin tag was generated in pET32a expression vector and expressed in E. coli strain BL21(DE3)Rosetta. Protein was purified using Ni-affinity chromatography, followed by size exclusion chromatography using Superdex 75 26/60 column. To assess inhibition of p53 binding to HDM2, a FITC labeled 8-mer peptide (sequence: Ac-Phe-Arg-Dpr-Ac6c-(6-Br)Trp-Glu-Glu-Leu-NH2; Anal Biochem. 2004 Aug. 1; 331(1):138-46) with strong affinity towards p53 binding pocket of HDM2 was used. The HDM2 assay buffer contained 1× Phosphate Buffered Saline (Invitrogen, Cat#14190), 0.01% BSA (Jackson ImmunoResearch, Cat#001-000-162), 0.01% Tween-20. In the 1× assay buffer recombinant HDM2 protein, peptide and Lumi4-Tb Cryptate-conjugate mouse anti-6×HIS antibody (cisbio, Cat#Tb61HISTLB) were added and transferred to ProxiPlate PLUS (PerkinElmer, Cat#6008269), containing compounds so that final DMSO concentration is 0.1%. Final concentrations of reagents in the assay wells are 0.5 nM HDM2, 0.25 nM anti HIS (Tb label) antibody and 3 nM peptide. After two hour incubation at room temperature in a humidified chamber plates were read on EnVision plate reader with the following settings: excitation: UV, […], two emission filters: 520 nm and 495 nm respectively. Ratio of em520/em495 was used to calculate % inhibition and to obtain IC50 with 4-parameter logistic equation.
IC50 DETERMINATIONS: Dose-response curves were plotted from the inhibition data, from 10 point serial dilutions of inhibitory compounds. Concentration of compound was plotted against em520/Cem495 ratio signal. To generate IC50 values, the dose-response curves were fitted to a standard sigmoidal curve and IC50 values were derived by nonlinear regression analysis. IC50 values in the above table are rounded to the nearest integer.

T1 sequence (Q00987 17-125): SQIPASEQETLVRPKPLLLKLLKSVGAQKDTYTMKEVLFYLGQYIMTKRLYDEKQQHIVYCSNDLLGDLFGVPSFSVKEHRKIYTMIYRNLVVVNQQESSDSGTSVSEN

| Compound | inhibition at 1 µM [%] |
| --- | --- |
| COc1cccc(Oc2nc(-c3noc(=O)[nH]3)nc3ncn(C[C@H]4CC[C@H](C)CC4)c23)c1 [Example 1.9, 3-{6-(3-methoxyphenoxy)-7-[(trans-4-methylcyclohexyl)methyl]-7H-purin-2-yl}-1,2,4-oxadiazol-5(4H)-one] | 39 |

same assay, conditions: Table 1; truncated HDM2 residues 17 to 125, 0.5 nM HDM2, 3 nM FITC labeled 8-mer peptide, two hour incubation

| Compound | IC50 [nM] |
| --- | --- |
| C[C@@H](Nc1nc(-c2n[nH]c(=O)n2C)nc2ncn(C[C@H]3CC[C@H](C)CC3)c12)C1CCC1 [Example 1.16, 5-(6-{[(1R)-1-cyclobutylethyl]amino}-7-[(trans-4-methylcyclohexyl)methyl]-7H-purin-2-yl)-4-methyl-2,4-dihydro-3H-1,2,4-triazol-3-one] | 241 |
| C[C@@H](Nc1nc(C(=O)O)nc2ncn(Cc3ccc(C(F)(F)F)cc3)c12)C1CCC1 [Example 1.13, 6-{[(1R)-1-cyclobutylethyl]amino}-7-[4-(trifluoromethyl)benzyl]-7H-purine-2-carboxylic acid] | 81.6 |
| C[C@@H](Nc1nc(C(=O)O)nc2ncn(Cc3ccc(C(F)(F)F)cc3)c12)C1CC1 [Example 1.1, 6-{[(1R)-1-cyclopropylethyl]amino}-7-[4-(trifluoromethyl)benzyl]-7H-purine-2-carboxylic acid] | 1140 |
| C[C@@H](Nc1nc(-c2n[nH]c(=O)o2)nc2ncn(C[C@H]3CC[C@H](C)CC3)c12)C1CCC1 [Example 1.15, 5-(6-{[(1R)-1-cyclobutylethyl]amino}-7-[(trans-4-methylcyclohexyl)methyl]-7H-purin-2-yl)-1,3,4-oxadiazol-2(3H)-one] | 52.5 |
| C[C@@H](Nc1nc(-c2noc(=O)[nH]2)nc2ncn(Cc3ccc(C(F)(F)F)cc3)c12)C1CCC1 [Example 1.14, 3-(6-{[(1R)-1-cyclobutylethyl]amino}-7-[4-(trifluoromethyl)benzyl]-7H-purin-2-yl)-1,2,4-oxadiazol-5(4H)-one] | 21.6 |
| C[C@@H](Nc1nc(-c2nc(=O)n(C)[nH]2)nc2ncn(C[C@H]3CC[C@H](C)CC3)c12)C1CCC1 [Example 1.3, 5-(6-{[(1R)-1-cyclobutylethyl]amino}-7-[(trans-4-methylcyclohexyl)methyl]-7H-purin-2-yl)-2-methyl-1,2-dihydro-3H-1,2,4-triazol-3-one] | 71.1 |
| C[C@@H](Nc1nc(C(=O)O)nc2ncn(C[C@H]3CC[C@H](C)CC3)c12)C1CCC1 [Example 1.2, 6-{[(1R)-1-cyclobutylethyl]amino}-7-[(trans-4-methylcyclohexyl)methyl]-7H-purine-2-carboxylic acid] | 68.5 |

same assay, conditions: Table 2; truncated HDM2 residues 17 to 125, 0.5 nM HDM2, 3 nM FITC labeled 8-mer peptide, two hour incubation

| Compound | IC50 [nM] |
| --- | --- |
| C[C@H]1CC[C@H](Cn2cnc3nc(-c4noc(=O)[nH]4)nc(-c4cncc(Cl)c4)c32)CC1 [Example 2.12, 3-{6-(5-chloropyridin-3-yl)-7-[(trans-4-methylcyclohexyl)methyl]-7H-purin-2-yl}-1,2,4-oxadiazol-5(4H)-one] | 86 |
| Cc1ncc(Cl)cc1-c1nc(-c2noc(=O)[nH]2)nc2ncn(C[C@H]3CC[C@H](C)CC3)c12 [Example 2.21, 3-{6-(5-chloro-2-methylpyridin-3-yl)-7-[(trans-4-methylcyclohexyl)methyl]-7H-purin-2-yl}-1,2,4-oxadiazol-5(4H)-one] | 87.8 |
| COc1cc(Cl)cc(-c2nc(-c3noc(=O)[nH]3)nc3ncn(C[C@H]4CC[C@H](C)CC4)c23)c1 [Example 2.6, 3-{6-(3-chloro-5-methoxyphenyl)-7-[(trans-4-methylcyclohexyl)methyl]-7H-purin-2-yl}-1,2,4-oxadiazol-5(4H)-one] | 312 |
| C[C@H]1CC[C@H](Cn2cnc3nc(-c4noc(=O)[nH]4)nc(-c4ccnc(Cl)c4)c32)CC1 [Example 2.15, 3-{6-(2-chloropyridin-4-yl)-7-[(trans-4-methylcyclohexyl)methyl]-7H-purin-2-yl}-1,2,4-oxadiazol-5(4H)-one] | 188 |
| COCCOc1cc(Cl)cc(-c2nc(-c3noc(=O)[nH]3)nc3ncn(C[C@H]4CC[C@H](C)CC4)c23)c1 [Example 2.22, 3-{6-[3-chloro-5-(2-methoxyethoxyl)phenyl]-7-[(trans-4-methylcyclohexyl)methyl]-7H-purin-2-yl}-1,2,4-oxadiazol-5(4H)-one] | 68.5 |
| COCCOc1cc(Cl)cc(-c2nc(-c3n[nH]c(=O)o3)nc3ncn(C[C@H]4CC[C@H](C)CC4)c23)c1 [Example 2.23, 5-{6-[3-chloro-5-(2-methoxyethoxy)phenyl]-7-[(trans-4-methylcyclohexyl)methyl]-7H-purin-2-yl}-1,3,4-oxadiazol-2(3H)-one] | 132 |
| CNC(=O)c1cc(Cl)cc(-c2nc(-c3noc(=O)[nH]3)nc3ncn(C[C@H]4CC[C@H](C)CC4)c23)c1 [Example 2.10, 3-chloro-N-methyl-5-{7-[(trans-4-methylcyclohexyl)methyl]-2-(5-oxo-4,5-dihydro-1,2,4-oxadiazol-3-yl)-7H-purin-6-yl}benzamide] | 71.8 |
| C[C@H]1CC[C@H](Cn2cnc3nc(-c4noc(=O)[nH]4)nc(-c4cc(Cl)cc(C(F)(F)F)c4)c32)CC1 [Example 2.11, 3-{6-[3-chloro-5-(trifluoromethyl)phenyl]-7-[(trans-4-methylcyclohexyl)methyl]-7H-purin-2-yl}-1,2,4-oxadiazol-5(4H)-one] | 172 |
| C[C@H]1CC[C@H](Cn2cnc3nc(-c4noc(=O)[nH]4)nc(-c4cc(Cl)ccc4O)c32)CC1 [Example 2.5, 3-{6-(5-chloro-2-hydroxyphenyl)-7-[(trans-4-methylcyclohexyl)methyl]-7H-purin-2-yl}-1,2,4-oxadiazol-5(4H)-one] | 842 |

same assay, conditions: Table 3; truncated HDM2 residues 17 to 125, 0.5 nM HDM2, 3 nM FITC labeled 8-mer peptide, two hour incubation

| Compound | IC50 [nM] |
| --- | --- |
| CC([C@H]1CC[C@H](C)CC1)n1cnc2nc(-c3noc(=O)[nH]3)nc(N[C@H](C)C3CCC3)c21 (stereo partly drawn) [Example 3.18, 3-(6-{[(1R)-1-cyclobutylethyl]amino}-7-[1-(trans-4-methylcyclohexyl)ethyl]-7H-purin-2-yl)-1,2,4-oxadiazol-5(4H)-one] | 17 |
| CC1CCC(Cn2cnc3nc(-c4noc(=O)[nH]4)nc(N[C@H](C)C4CCC4)c32)C1 (mixture of isomers) [Example 3.9, 3-(6-{[(1R)-1-cyclobutylethyl]amino}-7-[(3-methylcyclopentyl)methyl]-7H-purin-2-yl)-1,2,4-oxadiazol-5(4H)-one] | 1640 |
| C[C@@H]1CC[C@@H](Cn2cnc3nc(-c4noc(=O)[nH]4)nc(N[C@H](C)C4CCC4)c32)CC1(F)F (stereo in doubt) [Example 3.5, 3-(6-{[(1R)-1-cyclobutylethyl]amino}-7-{[(trans)-3,3-difluoro-4-methylcyclohexyl]methyl}-7H-purin-2-yl)-1,2,4-oxadiazol-5(4H)-one] | 198 |
| CCC1CCC(Cn2cnc3nc(C(=O)O)nc(N[C@H](C)C4CCC4)c32)C1 (single isomer, unassigned) [Example 3.12] | 146 |
| C=C1CCC(Cn2cnc3nc(C(=O)O)nc(N[C@H](C)C4CCC4)c32)CC1 [Example 3.8, 6-{[(1R)-1-cyclobutylethyl]amino}-7-[(4-methylidenecyclohexyl)methyl]-7H-purine-2-carboxylic acid] | 677 |
| CCC1CCC(Cn2cnc3nc(-c4noc(=O)[nH]4)nc(N[C@H](C)C4CCC4)c32)C1 (single isomer, unassigned) [Example 3.14] | 189 |
| CC1=C(F)CC(Cn2cnc3nc(-c4noc(=O)[nH]4)nc(N[C@H](C)C4CCC4)c32)CC1 (mixture of isomers) [Example 3.6, 3-(6-{[(1R)-1-cyclobutylethyl]amino}-7-[(3-fluoro-4-methylcyclohex-3-en-1-yl)methyl]-7H-purin-2-yl)-1,2,4-oxadiazol-5(4H)-one] | 149 |
| CCC1CCC(Cn2cnc3nc(-c4noc(=O)[nH]4)nc(N[C@H](C)C4CCC4)c32)C1 (mixture of isomers) [Example 3.10, 3-(6-(((R)-1-cyclobutylethyl)amino)-7-((3-ethylcyclopentyl)methyl)-7H-purin-2-yl)-1,2,4-oxadiazol-5(4H)-one] | 313 |
| C[C@@H](Nc1nc(C(=O)O)nc2ncn(CC3CCC4(CC3)CC4)c12)C1CCC1 [Example 3.4, 6-{[(1R)-1-cyclobutylethyl]amino}-7-(spiro[2.5]oct-6-ylmethyl)-7H-purine-2-carboxylic acid] | 2700 |
| C=C1CCC(Cn2cnc3nc(-c4noc(=O)[nH]4)nc(N[C@H](C)C4CCC4)c32)CC1 [Example 3.7, 3-(6-{[(1R)-1-cyclobutylethyl]amino}-7-[(4-methylidenecyclohexyl)methyl]-7H-purin-2-yl)-1,2,4-oxadiazol-5(4H)-one] | 543 |
